Data from patent publication US12691095B2, “Modulators of TNF-alpha activity” (Forward Therapeutics, Inc., priority 2024, dated 2026).

How the values were obtained:
TNF-α [1] = biological target: T1, TNF-α (Homo sapiens, UniProt P01375); test: TNF-α Induced HEK Blue Cellular Assay; format: cell-based; conditions: HEK Blue TNFα reporter cells stimulated with TNF-α, 24 hrs, secreted alkaline phosphatase (QUANTI-Blue, 620 nm)
T1 construct: purchased R&D 210-TA-020/CF
Protocol: (§1) Test articles were diluted in DMSO and serially diluted into 384 well assay plate (Corning 3765), at final concentrations ranging from […] to 0.5 nM. HEK Blue™ TNFα reporter cells were added at a final density of 10,000 cell per well in assay media [DMEM (Gibco, cat #21063-029), 10% fetal bovine serum (ExcelBio, cat #FND500), 1% Penicillin-Streptomycin (Solarbio, cat #P1400-100]. TNF-α (R&D 210-TA-020/CF) was then added to the assay plate at a final concentration of […]. This plate was then incubated for 24 hrs at 37° C. and 5% CO2. Secreted alkaline phosphatase expression was then measured using QUANTI- Blue™ (Invivogen), according to manufacturer instructions and read on an Envision microplate reader at 620 nm.
(§2) Inhibition data for test compound over a range of concentration was plotted as percentage inhibition of the test compound (100%=maximum inhibition). IC50 values were determined after correcting for background [(sample read-mean of low control)/(mean of high control-mean of low control)] where by the low control is DMSO without stimulation and high control is DMSO with stimulation. The IC50 is defined as the concentration of test compound which produces 50% inhibition and was quantified using the 4 parameter logistic equation to fit the data.

TNF-α [2] = biological target: T1, TNF-α; test: TNF-α Induced THP 1 dual Cellular Assay; format: cell-based; conditions: THP1 dual cell reporter cells stimulated with TNF-α, 24 hrs, secreted alkaline phosphatase (QUANTI-Blue, 620 nm)
Protocol: as §1, with “THP1 dual cell” for “HEK Blue™ TNFα”, “QUANTI-Blue™” for “QUANTI- Blue™”
as §2, with “whereby” for “where by”, “4-parameter” for “4 parameter”

T1 sequence (P01375 77-233 limits assumed): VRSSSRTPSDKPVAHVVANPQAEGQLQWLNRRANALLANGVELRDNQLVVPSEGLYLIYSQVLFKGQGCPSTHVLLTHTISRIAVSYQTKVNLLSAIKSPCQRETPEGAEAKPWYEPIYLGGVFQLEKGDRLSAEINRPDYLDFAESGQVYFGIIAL

Structure (SMILES): [2H]C([2H])([2H])N1C(=O)c2cccc(F)c2[C@H]2C[C@@H]1c1nc3ccc(-c4cc(F)c(P(C)(C)=O)cc4F)cc3n12 [Example 12, (7R,14R)-11-(4-(dimethylphosphoryl)-2,5-difluorophenyl)-1-fluoro-6-(methyl-d3)-6,7-dihydro-7,14-methanobenzo[f]benzo[4,5]imidazo[1,2-a][1,4]diazocin-5(14H)-one]
- IC50 (TNF-α [1]): ≤ 100 nM
- IC50 (TNF-α [2]): ≤ 100 nM

Structure (SMILES): [2H]C([2H])([2H])N1C(=O)c2c(C)ccc(Cl)c2[C@H]2C[C@@H]1c1nc3ccc(-c4ccc(P(C)(C)=O)c(F)c4)cc3n12 [Example 3, (7R,14R)-1-chloro-11-(4-(dimethylphosphoryl)-3-fluorophenyl)-4-methyl-6-(methyl-d3)-6,7-dihydro-7,14-methanobenzo[f]benzo[4,5]imidazo[1,2-a][1,4]diazocin-5(14H)-one]
- IC50 (TNF-α [1]): ≤ 100 nM

Structure (SMILES): CCN1C(=O)c2cccc(Cl)c2[C@H]2C[C@@H]1c1nc3ccc(-c4ccc(P(C)(C)=O)c(F)c4)cc3n12 [Example 11, (7R,14R)-1-chloro-11-(4-(dimethylphosphoryl)-3-fluorophenyl)-6-ethyl-6,7-dihydro-7,14-methanobenzo[f]benzo[4,5]imidazo[1,2-a][1,4]diazocin-5(14H)-one]
- IC50 (TNF-α [1]): ≤ 100 nM

Structure (SMILES): [2H]C([2H])([2H])N1C(=O)c2c(C)ccc(Cl)c2[C@H]2C[C@@H]1c1nc3ccc(-c4ccc(P(C)(C)=O)nc4)cc3n12 [Example 6, (7R,14R)-1-chloro-11-(6-(dimethylphosphoryl)pyridin-3-yl)-4-methyl-6-(methyl-d3)-6,7-dihydro-7,14-methanobenzo[f]benzo[4,5]imidazo[1,2-a][1,4]diazocin-5(14H)-one]
- IC50 (TNF-α [1]): ≤ 100 nM

Structure (SMILES): [2H]C([2H])([2H])N1C(=O)c2cccc(Cl)c2[C@H]2C[C@@H]1c1nc3ccc(-c4ccc(P(C)(C)=O)nc4)cc3n12 [Example 2, (7R,14R)-1-chloro-11-(6-(dimethylphosphoryl)pyridin-3-yl)-6-(methyl-d3)-6,7-dihydro-7,14-methanobenzo[f]benzo[4,5]imidazo[1,2-a][1,4]diazocin-5(14H)-one]
- IC50 (TNF-α [1]): ≤ 100 nM

Structure (SMILES): [2H]C([2H])([2H])N1C(=O)c2cccc(Cl)c2[C@H]2C[C@@H]1c1nc3ccc(-c4ccc(P(C)(C)=O)cc4F)cc3n12 [Example 8, (7R,14R)-1-chloro-11-(4-(dimethylphosphoryl)-2-fluorophenyl)-6-(methyl-d3)-6,7-dihydro-7,14-methanobenzo[f]benzo[4,5]imidazo[1,2-a][1,4]diazocin-5(14H)-one]
- IC50 (TNF-α [1]): ≤ 100 nM

Structure (SMILES): [2H]C([2H])([2H])N1C(=O)c2cccc(F)c2[C@H]2C[C@@H]1c1nc3ccc(-c4ccc(P(C)(C)=O)c(F)c4)cc3n12 [Example 9, (7R,14R)-11-(4-(dimethylphosphoryl)-3-fluorophenyl)-1-fluoro-6-(methyl-d3)-6,7-dihydro-7,14-methanobenzo[f]benzo[4,5]imidazo[1,2-a][1,4]diazocin-5(14H)-one]
- IC50 (TNF-α [1]): ≤ 100 nM
